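All cell lines were grown in 96-well plates and treated with compound for 48 hours. GI50 marks 50% less growth.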 Calls of active or inactive are those of the source. No stated cut-off is given here; in the data, active = GI50 up to about 1.1 µM and inactive = higher.
How the values were obtained:
Assay in all cases: NCI-60 cell line screen, 48 h
786-0 = test system: 786-0
A498 = test system: A498
A549 = test system: A549
ACHN = test system: ACHN
CAKI-1 = test system: CAKI-1
CCRF-CEM = test system: CCRF-CEM
COLO 205 = test system: COLO 205
DLD-1 = test system: DLD-1
DMS-114 = test system: DMS-114
DMS-273 = test system: DMS-273
EKVX = test system: EKVX
HCC 2998 = test system: HCC 2998
HCT-116 = test system: HCT-116
HCT-15 = test system: HCT-15
HL-60 = test system: HL-60
HOP-18 = test system: HOP-18
HOP-62 = test system: HOP-62
HOP-92 = test system: HOP-92
HT-29 = test system: HT-29
IGROV-1 = test system: IGROV-1
K562 = test system: K562
KM12 = test system: KM12
LOX IMVI = test system: LOX IMVI
M14 = test system: M14
M19-MEL = test system: M19-MEL
MOLT-4 = test system: MOLT-4
NCI-H23 = test system: NCI-H23
NCI-H460 = test system: NCI-H460
OVCAR-3 = test system: OVCAR-3
OVCAR-4 = test system: OVCAR-4
OVCAR-5 = test system: OVCAR-5
OVCAR-8 = test system: OVCAR-8
RXF 393 = test system: RXF 393
RXF 631 = test system: RXF 631
SF-268 = test system: SF-268
SF-295 = test system: SF-295
SF-539 = test system: SF-539
SK-MEL-28 = test system: SK-MEL-28
SK-MEL-2 = test system: SK-MEL-2
SK-MEL-5 = test system: SK-MEL-5
SK-OV-3 = test system: SK-OV-3
SN12C = test system: SN12C
SNB-19 = test system: SNB-19
SNB-75 = test system: SNB-75
SNB-78 = test system: SNB-78
SW-620 = test system: SW-620
TK-10 = test system: TK-10
U-251 = test system: U-251
UACC-257 = test system: UACC-257
UACC-62 = test system: UACC-62
UO-31 = test system: UO-31
BT-549 = test system: BT-549
DU-145 = test system: DU-145
Hs-578T = test system: Hs-578T
KM-20L2 = test system: KM-20L2
LXFL 529 = test system: LXFL 529
MCF7 = test system: MCF7
MDA-MB-435 = test system: MDA-MB-435
MDA-N = test system: MDA-N
Malme-3M = test system: Malme-3M
NCI-H226 = test system: NCI-H226
NCI-H522 = test system: NCI-H522
NCI/ADR-RES = test system: NCI/ADR-RES
PC-3 = test system: PC-3
RPMI-8226 = test system: RPMI-8226
SR = test system: SR
T47D = test system: T47D
XF498 = test system: XF498

SMILES: C=C(C#N)C1OCC2OC(C)(C)OC21 (stereo not drawn)
- GI50 (786-0): 20.2 µM (inactive)
- GI50 (A498): 22.2 µM (inactive)
- GI50 (A549): 36 µM (inactive)
- GI50 (ACHN): 20.7 µM (inactive)
- GI50 (CAKI-1): 23.4 µM (inactive)
- GI50 (CCRF-CEM): 16.5 µM (inactive)
- GI50 (COLO 205): 15.4 µM (inactive)
- GI50 (DLD-1): 17.1 µM (inactive)
- GI50 (DMS-114): 22.7 µM (inactive)
- GI50 (DMS-273): 19.1 µM (inactive)
- GI50 (EKVX): 24.4 µM (inactive)
- GI50 (HCC 2998): 26.7 µM (inactive)
- GI50 (HCT-116): 18.7 µM (inactive)
- GI50 (HCT-15): 16.9 µM
- GI50 (HL-60): 18.2 µM (inactive)
- GI50 (HOP-18): 24.7 µM (inactive)
- GI50 (HOP-62): > 100 µM (inactive)
- GI50 (HOP-92): 24 µM (inactive)
- GI50 (HT-29): 34.9 µM (inactive)
- GI50 (IGROV-1): 37.4 µM (inactive)
- GI50 (K562): 28.1 µM (inactive)
- GI50 (KM12): 33.3 µM (inactive)
- GI50 (LOX IMVI): 15 µM (inactive)
- GI50 (M14): 15.7 µM (inactive)
- GI50 (M19-MEL): 22 µM (inactive)
- GI50 (MOLT-4): 15.7 µM (inactive)
- GI50 (NCI-H23): 18.6 µM (inactive)
- GI50 (NCI-H460): 24.9 µM (inactive)
- GI50 (OVCAR-3): 21.7 µM (inactive)
- GI50 (OVCAR-4): 19.4 µM (inactive)
- GI50 (OVCAR-5): 19.8 µM (inactive)
- GI50 (OVCAR-8): 21.5 µM (inactive)
- GI50 (RXF 393): 16.7 µM (inactive)
- GI50 (RXF 631): 20.9 µM (inactive)
- GI50 (SF-268): 23.8 µM (inactive)
- GI50 (SF-295): 45.9 µM (inactive)
- GI50 (SF-539): 16.1 µM (inactive)
- GI50 (SK-MEL-28): 21.1 µM (inactive)
- GI50 (SK-MEL-2): 27.4 µM (inactive)
- GI50 (SK-MEL-5): 17.3 µM (inactive)
- GI50 (SK-OV-3): 50.6 µM (inactive)
- GI50 (SN12C): 18.4 µM (inactive)
- GI50 (SNB-19): > 100 µM (inactive)
- GI50 (SNB-75): 20.1 µM (inactive)
- GI50 (SNB-78): 19.7 µM (inactive)
- GI50 (SW-620): 19 µM (inactive)
- GI50 (TK-10): 34 µM (inactive)
- GI50 (U-251): 32.7 µM (inactive)
- GI50 (UACC-257): 15.5 µM (inactive)
- GI50 (UACC-62): 17.3 µM (inactive)
- GI50 (UO-31): 40.5 µM (inactive)

SMILES: Clc1cccc(N2CCN(CCN3CCc4c([nH]c5ccccc45)C3c3cccnc3)CC2)c1 (stereo not drawn)
- GI50 (786-0): 29.8 µM (inactive)
- GI50 (A498): > 100 µM (inactive)
- GI50 (A549): > 94.6 µM (inactive)
- GI50 (ACHN): > 100 µM (inactive)
- GI50 (BT-549): > 100 µM (inactive)
- GI50 (CAKI-1): > 100 µM (inactive)
- GI50 (CCRF-CEM): > 40.4 µM (inactive)
- GI50 (COLO 205): > 33.7 µM (inactive)
- GI50 (DLD-1): 39.4 µM (inactive)
- GI50 (DMS-114): 73.5 µM (inactive)
- GI50 (DMS-273): 37.9 µM (inactive)
- GI50 (DU-145): > 31.6 µM (inactive)
- GI50 (EKVX): 14.5 µM (inactive)
- GI50 (HCC 2998): 22.5 µM (inactive)
- GI50 (HCT-116): 31.8 µM (inactive)
- GI50 (HCT-15): 8.81 µM
- GI50 (HL-60): 26.3 µM (inactive)
- GI50 (HOP-18): > 100 µM (inactive)
- GI50 (HOP-62): > 45.6 µM (inactive)
- GI50 (HOP-92): > 52.5 µM (inactive)
- GI50 (HT-29): 37 µM (inactive)
- GI50 (Hs-578T): > 68.9 µM (inactive)
- GI50 (IGROV-1): 9.59 µM (inactive)
- GI50 (K562): 10.9 µM (inactive)
- GI50 (KM-20L2): 24 µM (inactive)
- GI50 (KM12): 8.05 µM (inactive)
- GI50 (LOX IMVI): > 50.2 µM (inactive)
- GI50 (LXFL 529): 63.7 µM (inactive)
- GI50 (M14): > 79.4 µM (inactive)
- GI50 (M19-MEL): > 100 µM (inactive)
- GI50 (MCF7): 19.2 µM (inactive)
- GI50 (MDA-MB-435): > 100 µM (inactive)
- GI50 (MDA-N): > 100 µM (inactive)
- GI50 (MOLT-4): > 71.6 µM (inactive)
- GI50 (Malme-3M): > 66.8 µM (inactive)
- GI50 (NCI-H226): > 37.3 µM (inactive)
- GI50 (NCI-H23): 78.5 µM (inactive)
- GI50 (NCI-H460): 8.75 µM (inactive)
- GI50 (NCI-H522): 65.5 µM (inactive)
- GI50 (NCI/ADR-RES): > 100 µM (inactive)
- GI50 (OVCAR-3): 58.5 µM (inactive)
- GI50 (OVCAR-4): 31.4 µM (inactive)
- GI50 (OVCAR-5): > 57.3 µM (inactive)
- GI50 (OVCAR-8): > 61.9 µM (inactive)
- GI50 (PC-3): > 86.7 µM (inactive)
- GI50 (RPMI-8226): 30.6 µM (inactive)
- GI50 (RXF 393): > 100 µM (inactive)
- GI50 (SF-268): > 100 µM (inactive)
- GI50 (SF-295): 69 µM (inactive)
- GI50 (SF-539): 33.5 µM (inactive)
- GI50 (SK-MEL-28): > 100 µM (inactive)
- GI50 (SK-MEL-2): 61 µM (inactive)
- GI50 (SK-MEL-5): 97.7 µM (inactive)
- GI50 (SK-OV-3): > 100 µM (inactive)
- GI50 (SN12C): 43.6 µM (inactive)
- GI50 (SNB-19): > 100 µM (inactive)
- GI50 (SNB-75): 18.8 µM (inactive)
- GI50 (SNB-78): > 100 µM (inactive)
- GI50 (SR): 25.7 µM (inactive)
- GI50 (SW-620): > 64.6 µM (inactive)
- GI50 (T47D): 9.38 µM (inactive)
- GI50 (TK-10): > 100 µM (inactive)
- GI50 (U-251): 64.4 µM (inactive)
- GI50 (UACC-257): > 77.4 µM (inactive)
- GI50 (UACC-62): > 70 µM (inactive)
- GI50 (UO-31): > 100 µM (inactive)
- GI50 (XF498): 40.3 µM (inactive)

Reference: ChEMBL document CHEMBL1201862, “PubChem BioAssay data set” (2004)
